Measurements published in patent US10330672B2, “Method for screening activator of mitochondrial activity” (INTELLIGENT SYNTHETIC BIOLOGY CENTER, priority 2015, dated 2019).

What was measured:
INS-1 cells [1] = assay: Intracellular ATP amount by luciferase assay in INS-1 cells; assay type: cell-based; settings: 10 μM, 2 hours, vs DMSO control
Method: (§1) Initially, the INS-1 cells, which are insulin-secreting cells, were cultured in a cell incubator (37° C., 5% CO2, RPMI medium, 10% FBS), were treated with 10 μM of gypenoside 75, ginsenoside F1, ginsenoside Rg3, ginsenoside Rb2, or ginsenoside Rb3 for 2 hours, and the intracellular ATP amount and mitochondrial membrane potential were measured. For the control group, cells treated with DMSO were used.
Next, the amount of ATP was measured using luciferase. As the fluorescence by activation of luciferase depends on the amount of ATP, the intracellular ATP amount can be measured by measuring the level of the fluorescence emission.
Specifically, the INS-1 cells treated with each of the above materials were lysed through freezing-thawing and ultrasonication treatments to obtain a cell lysate. Luciferase and luciferin were added to the obtained cell lysate above to induce fluorescence, and the levels of the fluorescence were quantified and compared (FIG. 1).

INS-1 cells [2] = assay: Mitochondrial membrane potential by TMRM staining and FACS in INS-1 cells; assay type: cell-based; settings: 10 μM, 2 hours, TMRM staining, vs DMSO control
Method: as §1
In the final stage, the mitochondrial membrane potential was measured by tetramethylrhodamine methyl ester (TMRM) staining. As the level of the TMRM staining increases proportionately to the mitochondrial membrane potential, the intracellular mitochondrial membrane potential can be measured by measuring the level of the TMRM staining.
Specifically, the INS-1 cells treated with each of the above materials were stained with TMRM, and applied to fluorescence-activated cell sorting (FACS). Then, the level of the staining was quantified, analyzed, and compared (FIG. 2).

CC(C)=CCC[C@](C)(O[C@@H]1O[C@H](CO[C@@H]2O[C@H](CO)[C@@H](O)[C@H](O)[C@H]2O)[C@@H](O)[C@H](O)[C@H]1O)[C@H]1CC[C@]2(C)[C@@H]1[C@H](O)C[C@@H]1[C@@]3(C)CC[C@H](O)C(C)(C)[C@@H]3CC[C@]12C [gypenoside 75]
increase of intracellular ATP amount compared with the control group (INS-1 cells [1]): 50%
increase of intracellular mitochondrial membrane potential compared with the control group (INS-1 cells [2]): 40%
